# Tests used:
# [1] = test system: catecholamine transport of chromaffin granule membranes; test: Catecholamine (dopamine) transport in chromaffin granule membranes; assay type: biochemical, cattle; details: role: inhibitor; 1 μM reserpine
# Method: (§1) Chromaffin granule membranes were prepared from adrenal glands collected from slaughtered cattle according to Reference A (Nathan Nelson et al., 1988, Chromaffin Granule Proton Pump, Methods in Enzymology, 157, 619-633). Chromaffin granule membranes prepared by sucrose density gradient centrifugation were suspended in 2 ml of SME buffer (20 mM MOPS-tris (pH 7.0), 0.3 M sucrose, 5 mM EDTA, 10 μg/ml leupeptin, and 10 μg/ml pepstatin)+25% glycerol, and the resulting suspension was aliquoted and stored at −80° C. Under these conditions, the ATP transport activity, the V-ATPase activity, and the catecholamine transport activity remain fully active for at least one year.
# A catecholamine transport inhibition experiment was carried out in the same manner as the ATP transport experiment except that the experiment used a measurement liquid containing 20 mM MOPS-tris (pH 7.0), 0.1 M sucrose, 0.1 M potassium chloride, 5 mM magnesium acetate, and about 5 μg of chromaffin granule membranes. To 0.5 ml of the measurement liquid, 2 mM ATP was added, and the resulting mixture was incubated at 30° C. for about 5 minutes, followed by addition of 3[H]-dopamine thereto to a final concentration of 10 μM. After further incubation at 30° C. for 15 minutes, 0.2 ml of the reaction liquid was subjected to suction filtration through a Millipore MCE membrane filter with a pore size of 0.45 μm, and the radioactivity on the filter was measured (N=3). The substrate, 3[H]-dopamine, was prepared by mixing 3,4-[RING-2,5,6-^3H]dihydroxyphenylethylamine (dopamine) (30 Ci/mmol) (manufactured by New England Nuclear) with dopamine hydrochloride (manufactured by LKT Laboratories) such that a final concentration of […] was achieved during the use.
# (§2) Chromaffin granule membrane vesicles were prepared in the same manner as in Example 5, and uptake of radiolabeled ATP into the vesicles was measured. Transport activity of catecholamine (dopamine) and ATP-dependent proton transport by V-ATPase were also measured in the same manner as in Example 5.
# mouse liver = test: Thioacetamide-induced hepatic fibrosis in mice: histology, immunostaining and fibrosis score; assay type: in vivo; details: TAA 50 mg/kg i.p. three times per week
# Method: Wild-type mice, […] (manufactured by Charles River Japan), were housed on a 12-hour light/dark cycle and fed a standard solid diet (5.4% fat, CRF-1, manufactured by Oriental Yeast Co., Ltd.) ad libitum. Thioacetamide (TAA, manufactured by FUJIFILM Wako Pure Chemical Corporation) was dissolved in physiological saline at 0.9% w/v. Eight-week-old mice were randomly assigned to three groups and continuously treated for 9 weeks according to the following scheme. At Week 9, all mice were euthanized 1 hour after administration of physiological saline or IMG.
# Normal control group (N=6): Physiological saline was intraperitoneally administered to mice three times per week. Eight hours after each administration, a vehicle was orally administered to the mice.
# TAA group (N=6): TAA (50 mg/kg, intraperitoneal) was administered to mice. Eight hours thereafter, physiological saline was orally administered to the mice. This treatment was performed three times per week for a total of 9 weeks.
# TAA+IMG group (N=6): During the first week, physiological saline was orally administered to mice. Thereafter, imeglimin (IMG) at 200 mg/kg was orally administered three times per week for 8 weeks. The administration of IMG was performed 8 hours after intraperitoneal administration of TAA (50 mg/kg).
# (§3) For immunohistochemical analysis, liver samples were fixed in 4% paraformaldehyde, embedded in paraffin, and then sectioned. The sections were stained with HE or PSR. In addition, the paraffin-embedded sections were subjected to immunostaining using an α-SMA monoclonal antibody (1:500, catalog No. A5228, manufactured by Sigma-Aldrich) and an F4/80 monoclonal antibody (1:200, catalog No. MCA497GA, manufactured by AbD Serotec). The cell specimens were observed using a microscope (BZ-X700 series, manufactured by Keyence) or a confocal laser microscope (FV1000, manufactured by Olympus Corporation). The number of F4/80-positive cells was counted in four high-power fields per section. The α-SMA-positive area and the PSR-positive area were quantified using the image analysis software Fiji-ImageJ (1.54f).
# A histological score was determined by a blinded investigator using the NAFLD histological scoring system of the Nonalcoholic Steatohepatitis Clinical Research Network. The total NAFLD activity score (NAS) was calculated from the total of the individual scores for steatosis ([…]), lobular inflammation (F4/80), and hepatocyte ballooning. The range of each parameter was 0 to 2 (ballooning) or 3 (the other two scores), where 0 indicates normal and 2 or 3 indicates severe. Staging of fibrosis was based on the NASH fibrosis stages, and a fibrosis stage ranging from 0 to 4 was determined according to Reference H (David E. Kleiner et al., 2005, Design and validation of a histological scoring system for nonalcoholic fatty liver disease, Hepatology, 41, 1313-1321).
# All results are expressed as the mean±standard error of the mean (S.E.M.). Statistical analyses were performed using GraphPad Prism 7.0 (GraphPad Software). Significance upon comparison between two groups was evaluated by an unpaired two-tailed Student's t-test. […]. Statistical significance among three or more groups was determined by two-way analysis of variance (ANOVA) with Tukey's or Dunnett's post hoc test. Coloc2 was used to perform image analysis, automatic thresholding, and pixel intensity correlation for statistical processing. Statistical significance was assumed when the P value was <0.05.
# [2] = test system: α-SMA-positive cells (stellate cells) in mouse liver; test: TAA-induced activation of HSCs in mice: α-SMA immunostaining of liver sections; assay type: in vivo
# Description: as §3
# In accordance with Example 15, immunostaining of α-SMA in liver sections and observation by fluorescence microscopy were performed for the normal control group, the TAA group, and the TAA+IMG group, and for a TAA+Clo group, which was treated in the same manner as the TAA+IMG group except that clodronate, instead of imeglimin, was administered at 30 mg/kg by blending it in the drinking water from 1 week after the start of TAA administration.
# V-ATPase [3] = biological target: T1, V-ATPase (Bos taurus, UniProt P31404+P31408); test: ATP-dependent proton transport by V-ATPase (acridine orange fluorescence quenching); assay type: biochemical, cattle; details: role: substrate; addition of ATP, relative to before addition, N=2
# T1 construct: Chromaffin granule membranes were prepared from adrenal glands collected from slaughtered cattle; from tissue; host or cells: cattle adrenal glands, chromaffin granule membranes (sucrose density gradient)
# T1 sequence (P31404 whole entry, looked up): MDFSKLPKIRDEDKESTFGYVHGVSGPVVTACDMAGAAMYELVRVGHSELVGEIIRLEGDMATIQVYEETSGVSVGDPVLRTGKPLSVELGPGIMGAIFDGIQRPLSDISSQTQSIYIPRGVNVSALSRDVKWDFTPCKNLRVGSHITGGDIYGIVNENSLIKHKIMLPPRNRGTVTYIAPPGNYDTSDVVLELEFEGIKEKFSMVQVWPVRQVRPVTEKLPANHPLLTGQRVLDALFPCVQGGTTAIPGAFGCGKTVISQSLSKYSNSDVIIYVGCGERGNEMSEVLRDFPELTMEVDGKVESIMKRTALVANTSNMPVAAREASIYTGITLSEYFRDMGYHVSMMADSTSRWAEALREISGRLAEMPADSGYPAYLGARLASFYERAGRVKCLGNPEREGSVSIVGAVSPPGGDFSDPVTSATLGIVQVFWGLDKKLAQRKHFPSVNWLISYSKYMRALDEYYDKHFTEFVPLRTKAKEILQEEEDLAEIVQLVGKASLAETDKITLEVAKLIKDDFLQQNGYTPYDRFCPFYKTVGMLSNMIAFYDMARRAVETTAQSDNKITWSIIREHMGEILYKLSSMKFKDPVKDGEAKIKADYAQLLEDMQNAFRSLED
# T1 sequence (P31408 whole entry, looked up): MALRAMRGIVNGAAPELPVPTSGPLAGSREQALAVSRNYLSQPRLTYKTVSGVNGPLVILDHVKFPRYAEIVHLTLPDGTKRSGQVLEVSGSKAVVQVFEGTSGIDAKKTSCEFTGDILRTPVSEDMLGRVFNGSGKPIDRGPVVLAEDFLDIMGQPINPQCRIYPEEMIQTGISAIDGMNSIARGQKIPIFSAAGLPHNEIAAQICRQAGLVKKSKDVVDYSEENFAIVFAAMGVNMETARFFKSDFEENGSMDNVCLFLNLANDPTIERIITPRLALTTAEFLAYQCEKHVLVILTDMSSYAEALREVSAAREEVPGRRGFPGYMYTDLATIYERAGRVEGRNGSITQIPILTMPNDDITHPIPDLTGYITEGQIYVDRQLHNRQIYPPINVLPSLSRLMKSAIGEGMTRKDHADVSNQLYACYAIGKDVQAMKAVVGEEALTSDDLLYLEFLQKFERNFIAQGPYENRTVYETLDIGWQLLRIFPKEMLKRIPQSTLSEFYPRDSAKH
# Method: as §1
# ATP-dependent proton transport by V-ATPase was measured according to Reference B. Proton transport activity was measured using a spectrofluorometer at excitation wavelength of 492 nm and a fluorescence wavelength 540 nm, wherein fluorescence quenching of acridine orange was used as an index (N=2). The transmembrane potential generated was measured using a spectrofluorometer at an excitation wavelength of 580 nm and a fluorescence wavelength of 630 nm, wherein fluorescence quenching of oxonol-V was used as an index (N=2). The acridine measurement liquid (2 ml) contained 20 mM MOPS-tris (pH 7.0), 0.2 M sucrose, 0.1 M potassium chloride, 5 mM magnesium acetate, 0.2 μg valinomycin, 2 μM acridine orange, and about 20 μg of chromaffin granules. The oxonol-V measurement liquid (2 ml) contained 20 mM MOPS-tris (pH 7.0), 0.3 M sucrose, 5 mM magnesium acetate, 5 μM oxonol-V, and about 20 μg of chromaffin granules.
# as §2
# V-ATPase [4] = biological target: T1, V-ATPase; test: Transmembrane potential generated (oxonol-V fluorescence quenching) in chromaffin granules; assay type: biochemical, cattle; details: role: substrate; addition of ATP, relative to before addition, N=2
# Method: as §1
# ATP-dependent proton transport by V-ATPase was measured according to Reference B. Proton transport activity was measured using a spectrofluorometer at excitation wavelength of 492 nm and a fluorescence wavelength 540 nm, wherein fluorescence quenching of acridine orange was used as an index (N=2). The transmembrane potential generated was measured using a spectrofluorometer at an excitation wavelength of 580 nm and a fluorescence wavelength of 630 nm, wherein fluorescence quenching of oxonol-V was used as an index (N=2). […]
# mouse auricle [5] = test: Imiquimod-induced psoriasis model, oral imeglimin (Example 18); assay type: in vivo; details: 62.5 mg of 5% imiquimod cream daily, Days 1 to 7 (disease inducer)
# Method: Experimental psoriatic symptoms were induced in a mouse auricle by imiquimod. Six-week-old male C57BL/6 mice (N=5) were acclimated for one week. On Days 1 to 7, 62.5 mg of 5% imiquimod cream (Beselna Cream 5%) (3.125 mg in terms of the active ingredient, manufactured by Mochida Pharmaceutical Co. Ltd.) was applied to the right auricle of the mice for 7 consecutive days (IMQ group). Once daily after the imiquimod application, the imeglimin administration group (IMQ+IMG group) received oral administration, at 40 mg/kg, of 500-mg Twymeeg (trademark) tablets (manufactured by Sumitomo Pharma Co. Ltd.) dissolved in physiological saline. The control group received an equal volume of physiological saline. On Day 8, the mice were euthanized by cervical dislocation, and auricle thickness was measured using a dial thickness gauge (manufactured by Adachi Sogyo Co., Ltd.).
# Each excised mouse auricle was fixed in 4% paraformaldehyde at 4° C. overnight. After ethanol substitution, the auricle was embedded in paraffin, sectioned using a rotary microtome Leica RM2165 (thickness, […]), and subjected to HE staining or immunohistochemical staining. For the immunohistochemical staining, the sections were deparaffinized, washed in xylene, and rehydrated through graded alcohols. The sections were incubated in DAKO at 95° C. for 30 minutes. The sections were blocked at room temperature for 60 minutes and then incubated at room temperature for 2 hours to allow reaction with a TGM1 anti-rabbit polyclonal antibody (catalog number 12912-3-AP, manufactured by Proteintech). The sample was washed and then allowed to react with a secondary antibody (Alexa 544-conjugated secondary antibody (goat anti-rabbit IgG) (manufactured by Molecular Probes)) at room temperature for 60 minutes. After allowing reaction with DAPI at room temperature for 10 minutes, the sections were mounted with Fluoromount and imaged using a fluorescence microscope (BZ-X710, manufactured by Keyence).
# mouse auricle [6] = test: Imiquimod-induced psoriasis relapse model (Example 20); assay type: in vivo; details: 5% imiquimod cream resumed on Day 23, vs first induction
# Method: To the left auricle of each mouse, 62.5 mg of 5% imiquimod cream (Beselna Cream 5%) was applied once daily a total of seven times (Days 1 to 7) in accordance with Example 19 to induce imiquimod-induced psoriasis. Thereafter, the imiquimod treatment was interrupted, and imeglimin (40 mg/kg) was orally administered on alternate days for 2 weeks (Day 8 to 22) (IMG). Mice without administration of imeglimin were designated IMQ. On Day 23, the imiquimod treatment was resumed, and 62.5 mg of 5% imiquimod cream (Beselna Cream 5%) was applied once daily a total of […]. In parallel, imeglimin (40 mg/kg) was orally administered daily to IMG.
# keratinocytes = test: Imiquimod-induced ATP secretion in keratinocytes; assay type: cell-based, human; details: imiquimod 1 μg/ml or 0.5 μg/ml, 15 minutes, N=8 (FIG. 32)
# Method: In the same manner as in Example 1, keratinocytes were cultured at 2.5×10^4 cells/well in a 24-well plate at 37° C. in 5% CO2 for 4 days. The medium was replaced with HBSS (manufactured by Gibco) supplemented with 1 μM or 10 μM imeglimin, and incubation was performed at 37° C. in 5% CO2 for 18 hours. Thereafter, imiquimod was added thereto at 1 μg/ml or 0.5 μg/ml, and incubation was performed for 15 minutes, followed by collection of 200 μl of the supernatant. The supernatant was immediately treated on a heat block at 95° C. for 10 minutes, and ATP in the supernatant was quantified using a ATP Assay Kit—Luminescence (manufactured by Dojindo) (N=8).
structure (smiles),measurement,setting,value
COC(=O)[C@H]1[C@H]2C[C@@H]3c4[nH]c5cc(OC)ccc5c4CCN3C[C@H]2C[C@@H](OC(=O)c2cc(OC)c(OC)c(OC)c2)[C@@H]1OC [reserpine],ATP-dependent dopamine transport,[1],almost completely blocked
"CC(=N)S [TAA, Thioacetamide]",reaction of F4/80-positive macrophages,mouse liver; 9 weeks (disease inducer),markedly increased
same,α-SMA-positive reaction,mouse liver; 9 weeks (disease inducer),markedly increased
same,HE-stained liver tissue,"mouse liver; 9 weeks, vs normal control","destruction of the lobular structure, hepatocyte ballooning, and inflammatory cell infiltration"
same,fibrosis score,"mouse liver; 9 weeks, vs normal control (FIG. 28)",markedly increased
same,α-SMA-positive reaction throughout the mouse liver,[2]; TAA 50 mg/kg i.p. (FIG. 29),increased markedly
same,α-SMA-positive area fraction,"[2]; TAA group (disease inducer, 50 mg/kg i.p.), four measurements, normal control 0.14±0.01",2.79±0.33
"Nc1ncnc2c1ncn2[C@@H]1O[C@H](COP(=O)(O)OP(=O)(O)OP(=O)(O)O)[C@@H](O)[C@H]1O [ATP, adenosine triphosphate]",quenching of acridine orange fluorescence,V-ATPase [3],62%
same,quenching of oxonol-V fluorescence,V-ATPase [4],40%
CC(C)Cn1cnc2c(N)nc3ccccc3c21 [imiquimod],auricle thickening,mouse auricle [5],auricle thickening induced
same,psoriatic symptoms in the epidermis,mouse auricle [5],"caused psoriatic symptoms in the epidermis, leading to partial desquamation"
same,psoriatic symptoms on resumed treatment,mouse auricle [6],induced more rapidly and more strongly than at the first induction
same,ATP secretion from the keratinocytes,keratinocytes,markedly promoted

# — patent US20260306500A1, “METHOD OF INHIBITING ADENOSINE TRIPHOSPHATE SECRETION, METHOD OF INHIBITING HEPATIC STELLATE CELL ACTIVATION, METHOD OF DEACTIVATING HEPATIC STELLATE CELL, METHOD OF TREATING HEPATIC FIBROSIS, METHOD OF TREATING NON-ALCOHOLIC STEATOHEPATITIS, AND METHOD OF TREATING PSORIASIS” (Kurume University, priority 2023, published 2026)
